From patent US12264156B2, “Compounds and pharmaceutical compositions thereof for the treatment of diseases” (GALAPAGOS NV, priority 2018, dated 2025)

Columns and labels:
[1] = tested on: LPS-induced TNFα in monocytes; assay: Monocytes assay: LPS-triggered TNFα (ELISA); format: cell-based, human; conditions: Homo sapiens, Monocyte, LPS 200 ng/mL, supernatant after 4 h
In short: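 Supernatant TNFα was quantified by luminol-based sandwich ELISA after 4 h stimulation with LPS (200 ng/mL final). The cells were CD14-bead-purified monocytes from human PBMCs, 100 000 per well, exposed to 3-fold compound dilutions for 1 h at 37° C beforehand, with DMSO at 0.2%. Results are reported as percent inhibition.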

[2] = tested on: LPS triggered IL-10 secretion in monocytes; assay: Monocytes assay: LPS-triggered IL-10 (ELISA); format: cell-based, human; conditions: LPS 200 ng/mL, supernatant after 4 h, maximal fold change vs LPS only
In short: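 Human CD14+ monocytes, magnetically isolated from buffy-coat PBMCs, were seeded at 100 000 cells/well and preincubated with compound for 1 h at 37° C (0.2% DMSO). LPS was then added at a final 200 ng/mL for 4 h. Supernatant IL-10 was quantified by chemiluminescent sandwich ELISA against a standard curve.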

[3] = tested on: TNFα; assay: Mouse LPS-induced endotoxic shock, plasma TNFα; format: in vivo; set-up: key: +: statistically significant inhibition of TNFα; −: no effect on the level of TNFα; conditions: p.o., plasma 90 min after LPS challenge
Description: (§1) Injection of lipopolysaccharide (LPS) induces a rapid release of soluble tumour necrosis factor (TNFα) into the periphery. This model was used to assess prospective blockers of TNFα release in vivo.
(§2) Lipopolysaccharide (LPS) from Escherichia Coli serotype O111:B4 was obtained from Sigma Aldrich (Cat #L2630).
(§3) BALB/cAnNCrl mice (female, 18-20 g body weight) were obtained from Charles River (Calco, Italy). Mice were kept on a 12 h light/dark cycle. Temperature was maintained at 22±2° C., food and water were provided ad libitum.
(§4) Mice were dosed once by oral (p.o.) or subcutaneous (sc) route with the tested compound in the appropriate vehicle.
(§5) At the Tmax of compound, 100 μg of LPS (in H2O) was injected intraperitoneally to mice. A control group was included which comprises administering the vehicle without an LPS challenge.
(§6) Mice were sacrificed 90 min after LPS challenge and blood was collected in heparinised tubes. Plasma was obtained by centrifugation for 15 min, 2000×g at +4° C. and frozen at −80° C. before cytokine analysis.
(§7) TNFα and IL-10 were quantified in plasma by AlphaLISA detection kits obtained from PerkinElmer (Massachusetts, USA), Cat4 AL505C and AL502C, respectively.
(§8) Statistics were performed with Prism 5.03 software (GraphPad) using an ANOVA analysis of variance with Dunnett's post-hoc test versus LPS group.
(§9) Active compounds were defined as showing a statistically significant decrease in TNFα with or without a statistically significant induction of IL-10

[4] = tested on: IL-10; assay: Mouse LPS-induced endotoxic shock, plasma IL-10; format: in vivo; set-up: key: +: statistically significant induction of IL-10; −: no effect on the level of IL-10; conditions: p.o., plasma 90 min after LPS challenge
Description: as §1, §2, §3, §4, §5, §6, §7, §8, §9

SMILES | EC50 ([1]; 4 h) | IL-10 FCmax median [2] | TNFα ([3]; 3 mg/kg) | TNFα ([3]; 10 mg/kg) | IL-10 ([4]; 3 mg/kg) | IL-10 ([4]; 10 mg/kg) | EC50 [1] | TNFα ([3]; 30 mg/kg) | IL-10 ([4]; 30 mg/kg)
COc1cc(-c2cnc3cc(OCCN(C)C)ccn23)cc2c1C(=O)N(CC(F)(F)F)CC2 [Cpd 18, 6-[7-[2-(dimethylamino)ethoxy]imidazo[1,2-a]pyridin-3-yl]-8-methoxy-2-(2,2,2-trifluoroethyl)-3,4-dihydroisoquinolin-1-one] |  |  | − | − | − | − |  |  | 
COc1cc(-c2cnc3cc(OC[C@H]4COCCO4)ccn23)cc2c1C(=O)N(CC(F)(F)F)CC2 [Cpd 86, 6-[7-[[(2R)-1,4-dioxan-2-yl]methoxy]imidazo[1,2-a]pyridin-3-yl]-8-methoxy-2-(2,2,2-trifluoroethyl)-3,4-dihydroisoquinolin-1-one] | 100 to 1000 nM | +++ (>4.5) | + | + | + | + |  |  | 
COc1cc(-c2cnc3cc(OCCN4CCOCC4)ccn23)cc2c1C(=O)N(CC(F)(F)F)CC2 [Cpd 88, 8-methoxy-6-[7-(2-morpholinoethoxy)imidazo [1,2-a]pyridin-3-yl]-2-(2,2,2-trifluoroethyl)-3,4-dihydroisoquinolin-1-one] |  | +++ (>4.5) | + | + | − | + | 100 to 1000 nM | + | +
COc1cc(-c2cnc3cc(OC[C@@H]4COCCO4)ccn23)cc2c1C(=O)N(CC(F)(F)F)CC2 [compound 225, 6-[7-[[(2S)-1,4-dioxan-2-yl]methoxy]imidazo[1,2-a]pyridin-3-yl]-8-methoxy-2-(2,2,2-trifluoroethyl)-3,4-dihydroisoquinolin-1-one] | 100 to 1000 nM | +++ (>4.5) | + | + | + | + |  |  | 
COc1cc(-c2cnc3cc(OCCCN4CCCC4)ccn23)cc(OC(F)F)c1C(=O)NC1CC1 [compound 275, N-cyclopropyl-2-(difluoromethoxy)-6-methoxy-4-[7-(3-pyrrolidin-1-ylpropoxy)imidazo[1,2-a]pyridin-3-yl]benzamide] | 100 to 1000 nM | +++ (>4.5) |  |  |  |  |  |  | 
COc1cc(-c2cnc3cc(OCCN4CCN(C(C)C)CC4)ccn23)cc(OC(F)F)c1C(=O)NC1CC1 [compound 276, N-cyclopropyl-2-(difluoromethoxy)-4-[7-[2-(4-isopropylpiperazin-1-yl)ethoxy]imidazo[1,2-a]pyridin-3-yl]-6-methoxy-benzamide] | 100 to 1000 nM | ++ (>1.5-4.5) |  |  |  |  |  |  | 
COc1cc(-c2cnc3cc(OCCCN4CCNCC4)ccn23)cc(OC(F)F)c1C(=O)NC1CC1 [compound 278, N-cyclopropyl-2-(difluoromethoxy)-6-methoxy-4-[7-(3-piperazin-1-ylpropoxy)imidazo[1,2-a]pyridin-3-yl]benzamide] | 100 to 1000 nM | ++ (>1.5-4.5) |  |  |  |  |  |  | 
COc1cc(-c2cnc3cc(OCCCN4CCCC(O)C4)ccn23)cc(OC(F)F)c1C(=O)NC1CC1 (stereo not shown) [compound 328, N-cyclopropyl-2-(difluoromethoxy)-4-[7-[3-(3-hydroxy-1-piperidyl)propoxy]imidazo [1,2-a]pyridin-3-yl]-6-methoxy-benzamide] | 100 to 1000 nM | +++ (>4.5) |  |  |  |  |  |  | 

The next lines start with results.

EC50 ([1]; 4 h) | SMILES | IL-10 FCmax median [2] | TNFα ([3]; 3 mg/kg) | TNFα ([3]; 10 mg/kg) | IL-10 ([4]; 3 mg/kg) | IL-10 ([4]; 10 mg/kg) | EC50 [1] | TNFα ([3]; 30 mg/kg) | IL-10 ([4]; 30 mg/kg)
100 to 1000 nM | COc1cc(-c2cnc3cc(OCCN(C)C)ccn23)cc(OC(F)F)c1C(=O)NC1CC1 [Cpd 6, N-cyclopropyl-2-(difluoromethoxy)-4-[7-[2-(dimethylamino)ethoxy]imidazo[1,2-a]pyridin-3-yl]-6-methoxy-benzamide] | +++ (>4.5) | − | + | − | + |  |  | 
0.1 to 100 nM | COc1cc(-c2cnc3cc(OCCOCCN4CCCCC4)ccn23)cc(OC(F)F)c1C(=O)NC1CC1 [compound 305] | +++ (>4.5) |  |  |  |  |  |  | 
0.1 to 100 nM | COc1cc(-c2cnc3cc(OCCCN4CCC5(CC4)CN(C)C(=O)O5)ccn23)cc(OC(F)F)c1C(=O)NC1CC1 [compound 325, N-cyclopropyl-2-(difluoromethoxy)-6-methoxy-4-[7-[3-(3-methyl-2-oxo-1-oxa-3,8-diazaspiro[4.5]decan-8-yl)propoxy]imidazo[1,2-a]pyridin-3-yl]benzamide] | ++ (>1.5-4.5) |  |  |  |  |  |  | 
0.1 to 100 nM | CCOC(=O)C1(F)CCN(CC(O)COc2ccn3c(-c4cc(OC)c(C(=O)NC5CC5)c(OC(F)F)c4)cnc3c2)CC1 (stereo not shown) [compound 384, ethyl 1-[3-[3-[4-(cyclopropylcarbamoyl)-3-(difluoromethoxy)-5-methoxy-phenyl]imidazo[1,2-a]pyridin-7-yl]oxy-2-hydroxy-propyl]-4-fluoro-piperidine-4-carboxylate] | ++ (>1.5-4.5) |  |  |  |  |  |  | 
0.1 to 100 nM | CCOC(=O)C1(F)CCN(CCOc2ccn3c(-c4cc(OC)c(C(=O)NC5CC5)c(OC(F)F)c4)cnc3c2)CC1 [compound 390, ethyl 1-[2-[3-[4-(cyclopropylcarbamoyl)-3-(difluoromethoxy)-5-methoxy-phenyl]imidazo[1,2-a]pyridin-7-yl]oxyethyl]-4-fluoro-piperidine-4-carboxylate] | +++ (>4.5) |  |  |  |  |  |  | 
